According to patent US20030110524A1, “TRANSGENIC ORGANISMS AND THEIR USES” (priority 1997, published 2003):

Experiments:
[1] = system: thyroid cells derived from CD2/neo^r transgenic rats; experiment: Survival of thyroid cells from CD2/neo^r transgenic rats with drugs; assay type: cell-based; settings: CD2/neo^r rat cells, drugs added at day 2, geneticin 400 μg/ml, ACG 10 μg/ml
Protocol: (§1) Thyroid cultures derived from the thyroid gland of adult CD2/neo^r, TG/TK/neo^r and control animals were produced by routine methods (Freshney, 1987). Twenty-four hours after plating, geneticin (400 μg/ml) was added to cultures originating from both types of transgenic and the control rats, and replaced every three days with fresh medium. When required, cells were subcultured (1:2) to prevent their becoming confluent. Cell counts were made manually in 20 fields chosen randomly, and the values at each time point, after allowing for changes due to subculturing, were aggregated (Table 3). […] Ten days later, cell counts were again made of 20 fields chosen at random. […] The results were as expected in view of the specific and non-specific expression of the positive and negative selection markers, in the TG/TK/neo^r and CD2/neo^r transgenics, respectively.
(§2) Drugs were added at day 2 in culture. Values are related to the number of cells found in control cultures without drug additions at various times after plating, and allow for dilutions resulting from passaging. Figures are the means of three separate determinations, the standard errors all being less than 15% of the mean.

[2] = system: lung fibroblast cells derived from TG/TK/neo^r transgenic rats; experiment: Survival of lung fibroblast cells from TG/TK/neo^r transgenic rats with drugs; assay type: cell-based, rat; settings: TG/TK/neo^r rat cells, drugs added at day 2, geneticin 400 μg/ml, 5FC 100 μg/ml
Protocol: (§3) Fibroblast cultures derived from lung of adult CD2/neo^r, TG/TK/neo^r and control animals were produced and expanded by routine methods (Freshney (1987), Alan R. Liss, New York). Twenty-four hours after plating, geneticin (400 μg/ml) was added to cultures originating from both types of transgenic rats and from control rats, and replaced every three days with fresh medium. When required, cells were subcultured (1:3) to prevent them becoming confluent, again by basic culture methods (Freshney 1987). Cell counts were made manually in 20 fields chosen randomly and the values at each time point, after allowing for changes due to subculturing, were aggregated. […] In the absence of added geneticin, no change in cell survival from either of the transgenic animals was observed.
(§4) The effects of 5-fluorocytosine (5FC) were also determined. 5-fluorocytosine at a concentration of 100 μg/ml had no effect on fibroblast cells derived from control animals or from the TG/TK/neo^r transgenic. In the cells derived from the CD2/neo^r transgenic animal, however, 94% of the originally-plated cells died, or were non-functional (as determined by their failure to exclude trypan blue) after 10 days culture in the presence of 5FC (Table 2).
(§5) Drugs were added at day 2 in culture. Values are related to the number of cells found in control cultures without drug additions at various times after plating, and allowing for dilutions resulting from passaging. Figures are the means of three separate determinations, the standard errors all being less than 15% of the mean.

[3] = system: lung fibroblast cells derived from control rats; experiment: Survival of lung fibroblast cells from control rats with drugs; assay type: cell-based, rat; settings: control rat cells, drugs added at day 2, geneticin 400 μg/ml, 5FC 100 μg/ml
Protocol: as §3, §4, §5

[4] = system: thyroid cells derived from TG/TK/neo^r transgenic rats; experiment: Survival of thyroid cells from TG/TK/neo^r transgenic rats with drugs; assay type: cell-based, rat; settings: TG/TK/neo^r rat cells, drugs added at day 2, geneticin 400 μg/ml, ACG 10 μg/ml
Protocol: as §1, §2

[5] = system: lung fibroblast cells derived from CD2/neo^r transgenic rats; experiment: Survival of lung fibroblast cells from CD2/neo^r transgenic rats with drugs; assay type: cell-based, rat; settings: CD2/neo^r rat cells, drugs added at day 2, geneticin 400 μg/ml, 5FC 100 μg/ml
Protocol: as §3, §4, §5

[6] = system: thyroid cells derived from control rats; experiment: Survival of thyroid cells from control rats with drugs; assay type: cell-based, rat; settings: control rat cells, drugs added at day 2, geneticin 400 μg/ml, ACG 10 μg/ml
Protocol: as §1, §2

[7] = system: spinal cord cells derived from the CD2-neo^r transgenic rat; experiment: Survival and development of spinal cord cells from the CD2-neo^r transgenic rat under geneticin; assay type: cell-based; settings: geneticin 1 mg/ml; 60 days in vitro
Protocol: Cultures of spinal cord cells derived from the CD2-neo^r transgenic rat were grown in small flasks, using previously established methods (Foster et al., (1990) Eur. J. Neurosci. 3, 32-39). At the beginning of the experimental period, in the region of 100 yeast spores, and unknown amounts of other common laboratory microbiological contaminants, were introduced into the flask. At the same time geneticin (1 mg/ml) was added. Thereafter, all manipulations of the medium and additions to the flask were conducted outside the sterile environment of the laminar flow cabinet.

CN[C@@H]1[C@@H](O)[C@@H](O[C@@H]2[C@@H](O)[C@H](O[C@H]3O[C@H]([C@@H](C)O)[C@@H](O)[C@H](O)[C@H]3N)[C@@H](N)C[C@H]2N)OC[C@]1(C)O [geneticin]
Survival of thyroid cells (related to number of cells in control cultures without drug) ([1]; day 1 in culture): 91 | Survival of thyroid cells (related to number of cells in control cultures without drug) ([1]; day 3 in culture): 94 | Survival of thyroid cells (related to number of cells in control cultures without drug) ([1]; day 5 in culture): 91 | Survival of thyroid cells (related to number of cells in control cultures without drug) ([1]; day 7 in culture): 93 | Survival of thyroid cells (related to number of cells in control cultures without drug) ([1]; day 9 in culture): 107 | Survival of thyroid cells (related to number of cells in control cultures without drug) ([1]; day 11 in culture): 105 | Survival of lung fibroblast cells (related to number of cells in control cultures without drug) ([2]; day 1 in culture): 97 | Survival of lung fibroblast cells (related to number of cells in control cultures without drug) ([2]; day 3 in culture): 105 | Survival of lung fibroblast cells (related to number of cells in control cultures without drug) ([2]; day 5 in culture): 108 | Survival of lung fibroblast cells (related to number of cells in control cultures without drug) ([2]; day 7 in culture): 101 | Survival of lung fibroblast cells (related to number of cells in control cultures without drug) ([2]; day 9 in culture): 105 | Survival of lung fibroblast cells (related to number of cells in control cultures without drug) ([2]; day 11 in culture): 111 | Survival of lung fibroblast cells (related to number of cells in control cultures without drug) ([3]; day 1 in culture): 99 | Survival of lung fibroblast cells (related to number of cells in control cultures without drug) ([3]; day 3 in culture): 101 | Survival of lung fibroblast cells (related to number of cells in control cultures without drug) ([3]; day 5 in culture): 85 | Survival of lung fibroblast cells (related to number of cells in control cultures without drug) ([3]; day 7 in culture): 23 | Survival of lung fibroblast cells (related to number of cells in control cultures without drug) ([3]; day 9 in culture): 5 | Survival of lung fibroblast cells (related to number of cells in control cultures without drug) ([3]; day 11 in culture): 2 | Survival of thyroid cells (related to number of cells in control cultures without drug) ([4]; day 1 in culture): 104 | Survival of thyroid cells (related to number of cells in control cultures without drug) ([4]; day 3 in culture): 105 | Survival of thyroid cells (related to number of cells in control cultures without drug) ([4]; day 5 in culture): 98 | Survival of thyroid cells (related to number of cells in control cultures without drug) ([4]; day 7 in culture): 88 | Survival of thyroid cells (related to number of cells in control cultures without drug) ([4]; day 9 in culture): 93 | Survival of thyroid cells (related to number of cells in control cultures without drug) ([4]; day 11 in culture): 98 | Survival of lung fibroblast cells (related to number of cells in control cultures without drug) ([5]; day 1 in culture): 91 | Survival of lung fibroblast cells (related to number of cells in control cultures without drug) ([5]; day 3 in culture): 94 | Survival of lung fibroblast cells (related to number of cells in control cultures without drug) ([5]; day 5 in culture): 91 | Survival of lung fibroblast cells (related to number of cells in control cultures without drug) ([5]; day 7 in culture): 93 | Survival of lung fibroblast cells (related to number of cells in control cultures without drug) ([5]; day 9 in culture): 107 | Survival of lung fibroblast cells (related to number of cells in control cultures without drug) ([5]; day 11 in culture): 105 | Survival of thyroid cells (related to number of cells in control cultures without drug) ([6]; day 1 in culture): 95 | Survival of thyroid cells (related to number of cells in control cultures without drug) ([6]; day 3 in culture): 91 | Survival of thyroid cells (related to number of cells in control cultures without drug) ([6]; day 5 in culture): 85 | Survival of thyroid cells (related to number of cells in control cultures without drug) ([6]; day 7 in culture): 56 | Survival of thyroid cells (related to number of cells in control cultures without drug) ([6]; day 9 in culture): 9 | Survival of thyroid cells (related to number of cells in control cultures without drug) ([6]; day 11 in culture): 4 | Survival and development of the neural cells compared to uninfected control cells grown without geneticin [7]: appeared unimpaired
